Read-outs that look alike come from different tables or passages of the source.
Tests used:
platelet aggregation [1] = assay: Platelet aggregation inhibitory activity (ex vivo) after oral administration; format: in vivo; details: Cavia porcellus, guinea pig, oral 0.1 mg/kg, ADP 10 μg/ml
Protocol: A canula for collecting blood was inserted into the left common carotid artery of a guinea pig which was anesthetized with pentobarbital (30 mg/kg, i.p.). The blood (1 ml) was taken with a syringe containing 1/10 volume of 3.8% sodium citrate (Kettin-citrate, manufactured by Kokusai Shiyaku Ltd.), and the platelet aggregation ability thereof was measured (as a value before administration). Then, a test compound was orally administered to the guinea pig at a dose of 0.1 mg/kg in a volume of 5 ml/kg, and the blood was collected periodically likewise at 0.5, 1, 2, 4 and 6 hours after the administration of the test compound, and the platelet aggregation ability thereof was measured.
The determination of the platelet aggregation ability was carried out by turbidimetry using a Hematracer (Niko Bioscience) as follows. That is, the blood was centrifuged at 4500 rpm at room temperature for 10 seconds, and the supernatant was considered as platelet rich plasma (PRP), and the precipitate was centrifuged at 11000 rpm for two minutes and its supernatant was considered as platelet poor plasma (PPP), and the photo-transmittance of the PRP and the PPP was adjusted to 0%, and 100%, respectively. A cubet containing PRP (200 μl) was inserted to a measurement well, and […] at 1000 rpm at 37° C. for two minutes, and thereto was added a platelet aggregator; ADP (adenosine diphosphate, Sigma Ltd., 20 μl, final concentration; 10 μg/ml), and the maximum aggregation rate was measured. From the maximum aggregation rate before the administration of the test compound (MAR control) and the maximum aggregation rate after the administration of the test compound (MAR sample), the platelet aggregation inhibitory rate of each test compound was estimated according to the following equation.
Inhibitory rate (%)=(1-(MAR sample/MAR control))×100
The periodical change in the platelet aggregation inhibitory rate of each test compound at a dose of 0.1 mg/kg of oral administration is shown in Table 5.

platelet aggregation [2] = assay: Platelet aggregation inhibitory activity (ADP-induced, human platelet rich plasma); format: cell-based
Protocol: The blood was collected from the elbow vein of a normal volunteer with mixing thereof with 1/10 volume of 3.8% sodium citrate, and the blood was centrifuged at 1000 rpm (150 g) for 10 minutes to give the supernatant as platelet rich plasma (PRP). To PRP (200 μl) was added a test compound solution (2 μl), and the mixture was incubated with stirring at 1000 rpm at 37° C. for two minutes, and thereto was added a platelet aggregator, adenosine diphosphate (ADP, 22 μl) at a final concentration of 3 μg/ml. The platelet aggregation activity was determined by nephelometric analysis using a Hematracer (manufactured by Niko Bioscience, Ltd.). The test results of platelet aggregation inhibitory activity are expressed by IC50, which is a concentration of the test compound being required to inhibit the platelet aggregation reaction by 50%.
The compounds of Examples 18 to 70 were tested in the same manner as in Example 17.
The compounds of Examples 72 to 116 were tested in the same manner as in Example 17.

[3] = 0.5 hr, read-out: platelet aggregation inhibitory rate (%), 0.5 hr
[4] = 1 hr, read-out: platelet aggregation inhibitory rate (%), 1 hr
[5] = 2 hrs, read-out: platelet aggregation inhibitory rate (%), 2 hrs
[6] = 4 hrs, read-out: platelet aggregation inhibitory rate (%), 4 hrs
[7] = 6 hrs, read-out: platelet aggregation inhibitory rate (%), 6 hrs
[8] = Homo sapiens, Table 3, same manner as Example 17
[9] = Homo sapiens, Table 2, same manner as Example 17

## CCNC(=N)c1ccc(C(=O)NCCC(=O)NC[C@H](NS(=O)(=O)c2ccccc2)C(=O)O)cc1 [Example 99, (2S)-2-benzenesulfonylamino-3-(3-(4-(N-ethylamidino)benzoylamino)propanoylamino)propanoic Acid]
Platelet aggregation [1]; [3]
  inhibition in vivo at 0.1 mg/kg: 100%
Platelet aggregation [1]; [4]
  inhibition in vivo at 0.1 mg/kg: 100%
Platelet aggregation [1]; [5]
  inhibition in vivo at 0.1 mg/kg: 100%
Platelet aggregation [1]; [6]
  inhibition in vivo at 0.1 mg/kg: 100%
Platelet aggregation [1]; [7]
  inhibition in vivo at 0.1 mg/kg: 100%
Platelet aggregation [2]; [8]
  IC50: 17 nM

## N=C(N)c1ccc(CCCCC(=O)NC[C@H](NS(=O)(=O)c2ccccc2)C(=O)O)cc1 [Example 67]
Platelet aggregation [1]; [3]
  inhibition in vivo at 0.1 mg/kg: 88%
Platelet aggregation [1]; [4]
  inhibition in vivo at 0.1 mg/kg: 71%
Platelet aggregation [1]; [5]
  inhibition in vivo at 0.1 mg/kg: 69%
Platelet aggregation [1]; [6]
  inhibition in vivo at 0.1 mg/kg: 31%
Platelet aggregation [1]; [7]
  inhibition in vivo at 0.1 mg/kg: 10%
Platelet aggregation [2]; [9]
  IC50: 32 nM

## CNC(=N)c1ccc(C(=O)NCCC(=O)NC[C@H](NS(=O)(=O)c2ccccc2)C(=O)O)cc1 [Example 98, (2S)-2-benzenesulfonylamino-3-(3-(4-(N-methylamidino)benzoylamino)propanoylamino)propanoic Acid]
Platelet aggregation [1]; [3]
  inhibition in vivo at 0.1 mg/kg: 94%
Platelet aggregation [1]; [4]
  inhibition in vivo at 0.1 mg/kg: 100%
Platelet aggregation [1]; [5]
  inhibition in vivo at 0.1 mg/kg: 100%
Platelet aggregation [1]; [6]
  inhibition in vivo at 0.1 mg/kg: 100%
Platelet aggregation [1]; [7]
  inhibition in vivo at 0.1 mg/kg: 100%
Platelet aggregation [2]; [8]
  IC50: 57 nM

## CCCCNC(=N)c1ccc(C(=O)NCCC(=O)NC[C@H](NS(=O)(=O)c2ccccc2)C(=O)O)cc1 [Example 103, (2S)-2-benzenesulfonylamino-3-(3-(4-(N-n-butylamidino)benzoylamino)propanoylamino)propanoic Acid]
Platelet aggregation [2]; [8]
  IC50: 25 nM

## CCCCS(=O)(=O)N[C@@H](CNC(=O)CNC(=O)CCCCC1CCNCC1)C(=O)O [Example 12, (2S)-2-butanesulfonylamino-3-(N-(5-(4-piperidyl)pentanoyl)glycylamino)propanoic Acid]
Platelet aggregation [2]; Table 1, human PRP, ADP 3 μg/ml, 37° C.
  IC50: 1370 nM

## CN(C)C(=N)c1ccc(C(=O)NCCC(=O)NC[C@H](NS(=O)(=O)c2ccccc2)C(=O)O)cc1 [Example 100, (2S)-2-benzenesulfonylamino-3-(3-(4-(N,N-dimethylamidino)benzoylamino)propanoylamino)propanoic Acid]
Platelet aggregation [1]; [3]
  inhibition in vivo at 0.1 mg/kg: 100%
Platelet aggregation [1]; [4]
  inhibition in vivo at 0.1 mg/kg: 100%
Platelet aggregation [1]; [5]
  inhibition in vivo at 0.1 mg/kg: 100%
Platelet aggregation [1]; [6]
  inhibition in vivo at 0.1 mg/kg: 100%
Platelet aggregation [1]; [7]
  inhibition in vivo at 0.1 mg/kg: 100%
Platelet aggregation [2]; [8]
  IC50: 28 nM

## CN(C)c1cccc2c(S(=O)(=O)N[C@@H](CNC(=O)CCNC(=O)CCC3CCNCC3)C(=O)O)cccc12 [Example 42, (2S)-2-(5-dimethylamino-1-naphthalene)sulfonylamino-3-(3-(3-(4-piperidyl)propanoylamino)propanoylamino)propanoic Acid]
Platelet aggregation [2]; [9]
  IC50: 233 nM

## O=C(CCC1CCNCC1)NCCC(=O)NC[C@H](NS(=O)(=O)c1cccc(C(F)(F)F)c1)C(=O)O [Example 28, (2S)-3-(3-(3-(4-piperidyl)propanoylamino)propanoylamino)-2-(3-trifluoromethyl)benzenesulfonylaminopropanoic Acid]
Platelet aggregation [2]; [9]
  IC50: 58 nM

From patent US6048854A, “2,3-diaminopropionic acid derivative” (Sumitomo Pharmaceuticals Company, Limited, priority 1993, dated 2000)
